This series relates to UDP-glucuronosyl transferase. Type of series: in vitro ADME, human. Particulars: for % Control (M3G Formation Activity) / % Control (M6G Formation Activity): morphine 2mM, HLM protein 0.5 mg/mL, 30 min. As for the experimental part: Incubations were conducted in 2-mL polypropylene centrifuge tubes. Incubation mixtures containing HLM suspension and alamethicin (25 µg/mL) in 0.1 M potassium phosphate buffer (pH 7.4), were placed on wet ice for 5 min. […] Reactions were initiated by the addition of 50 mM UDPGA spiking solution. […] Samples were incubated aerobically in a water bath at 37 °C for the required amount of time and reactions terminated by the addition of 400 µL of the appropriate quench solution. The 2-mL centrifuge tubes were vortex mixed and stored in a -20 °C freezer for ca. 20 min prior to centrifugation at 13.3 × g, 4 °C for 10 min. Supernatants were analyzed by LC-MS/MS for morphine metabolites formation.
UGT-dependent activities were determined by monitoring the formation of enzyme specific metabolites from marker substrates. […] Incubation with selective inhibitors (positive control) was performed at a concentration above their established IC50 for the confirmation of enzyme activity and inhibitory effects.
Incubations were performed in 2-mL centrifuge tubes. Incubation mixtures containing HLM suspension and alamethicin (25 µg/mL) in 0.1 M potassium phosphate buffer (pH 7.4), were placed on wet ice for 5 min. […] Reactions were initiated by the addition of UDPGA. The final incubation mixture contained 0.5 mg/mL HLM, 2 mM MgCl2, 5 mM UDPGA, various concentration of Compound A or a selective inhibitor. Samples were incubated aerobically in a water bath at 37 °C for 30 min. The incubation systems were terminated by the addition of a 400-µL quenching solution. The 2-mL centrifuge tubes were vortex mixed and stored in a -20 °C freezer for approximately 20 min prior to centrifugation at 13.3 × g, 4 °C for 10 min. Supernatants were analyzed by LC-MS/MS.
Percent of Control = Cmet ÷ Ccontrol × 100%
Cmet: Concentration of the metabolite in the incubations in the presence of Compound A or selective inhibitor
Ccontrol: Concentration of the enzyme-specific metabolite in the incubations in the absence of Compound A and selective inhibitor
The IC50 for Compound A was estimated by non-linear regression analysis of individual sets of percent inhibition values using GraphPad Prism 5.

The mark [1] stands for this setting: positive control incubation, same conditions (2 mM morphine, HLM 0.5 mg/mL, 30 min).

Read-outs that look alike come from different tables or passages of the source. Bounds are passed on as bounds.

We go through two compounds from EP2545915A1, “2-amino-2-oxoethyl trans-3-[5-(6-methoxy-naphtalen-1-yl)-1,3-dioxan-2-yl]propyl-carbamate for use in the treatment of persistent cancer pain” (SANOFI, priority 2011, dated 2013).

On to `COc1ccc2c(cccc2[C@H]2CO[C@H](CCCNC(=O)OCC(N)=O)OC2)c1` [Compound A, 2-amino-2-oxoethyl trans-3-[5-(6-methoxy-naphtalen-1-yl)-1,3-dioxan-2-yl]propyl-carbamate], for which the IC50 entry (2 mM morphine in HLM, Compound A 0.5 to 250 µM, M3G and M6G formation monitored) was “could not be estimated”. In addition, the “% Control (M3G Formation Activity)” value by setting is: (Compound A 0.5 µM) 97.7%; (Compound A 1.0 µM) 96.2%; (Compound A 5.0 µM) 106.0%; (Compound A 10 µM) 107.9%; (Compound A 25 µM) 108.3%; (Compound A 50 µM) 105.7%. In addition, the “% Control (M3G Formation Activity)” value came out at 92.7% (Compound A 100 µM) and 94.2% (Compound A 250 µM). Besides, the “% Control (M6G Formation Activity)” value is, setting by setting: (Compound A 0.5 µM) 96.9%; (Compound A 1.0 µM) 94.4%; (Compound A 5.0 µM) 102.4%; (Compound A 10 µM) 110.4%; (Compound A 25 µM) 105.8%; (Compound A 50 µM) 108.3%. Further, the “% Control (M6G Formation Activity)” value by setting is: (Compound A 100 µM) 97.4%; (Compound A 250 µM) 96.5%. For the same compound, the “drug interaction with morphine” value (according to in vitro results) is “no significant drug interaction”. In addition, where the note is “human liver microsomes, formation of morphine-3-glucuronide and morphine-6-glucuronide monitored”, the “inhibition of morphine metabolism” value is recorded as “no inhibition”.
As to `CC(=O)N1CCN(c2ccc(OCC3COC(Cn4ccnc4)(c4ccc(Cl)cc4Cl)O3)cc2)CC1` (stereo not drawn) [ketoconazole, reference compound], under setting [1], the “inhibition to M3G activity” value is on record as at least 98.5% and the “inhibition to M6G activity” value is given as at least 98.5%.
